{"source": "patent US11300570B2", "about": "“Therapeutic and diagnostic methods for cancer” (Genentech, Inc., priority 2016, dated 2022)", "key": {"[1]": {"test_system": "locally advanced or metastatic NSCLC", "assay": "OAK Phase III randomized trial, atezolizumab vs docetaxel, in 2L+ NSCLC, efficacy by tTMB", "assay_type": "in vivo, human", "details": "2L+ OAK", "source_text": "(§1) Patients were eligible for enrollment in the POPLAR study if they had locally advanced or metastatic (e.g., stage IIIB, stage IV, or recurrent) NSCLC; disease progression during or following treatment with a prior platinum-containing regimen for locally advanced, unresectable/inoperable, or metastatic NSCLC, or disease recurrence within 6 months of treatment with a platinum-based adjuvant/neoadjuvant regimen; measurable disease, as defined by RECIST v1.1; and an ECOG performance status of 0 or 1. Participants were randomized to receive either atezolizumab at a dose of 1200 mg intravenously every three weeks or docetaxel 75 mg per meter square (mg/m^2) intravenously every three weeks. Treatment with atezolizumab could be continued as long as participants were experiencing clinical benefit, i.e., in the absence of unacceptable toxicity or symptomatic deterioration attributed to disease progression. Pre-treatment tumor samples from patients in the Phase III OAK trial (Clinical Trial ID No.: NCT02008227) were also evaluated for tTMB. Patients were eligible for enrollment in the OAK study if they had locally advanced or metastatic (e.g., stage IIIB, stage IV, or recurrent) NSCLC; disease progression during or following treatment with a prior platinum-containing regimen for locally advanced, unresectable/inoperable, or metastatic NSCLC, or disease recurrence within 6 months of treatment with a platinum-based adjuvant/neoadjuvant regimen; measurable disease, as defined by RECIST v1.1; and an ECOG performance status of 0 or 1. Participants were randomized to receive either atezolizumab at a dose of 1200 mg intravenously every three weeks or docetaxel 75 mg per square meter (mg/m^2) intravenously every three weeks. Treatment with atezolizumab could be continued as long as participants were experiencing clinical benefit, i.e., in the absence of unacceptable toxicity or symptomatic deterioration attributed to disease progression.\n(§2) To identify somatic mutations, tumor samples (e.g., archival tumor samples) were processed as described in Frampton et al. Nat. Biotechnol. 31:1023-31, 2013. Sequencing libraries were constructed to sequence and analyze samples. In addition to standard mutation processing, a mutation load estimation algorithm was applied that, based on the number of somatic mutations and/or rearrangements detected in Table 1 or Table 2, respectively, extrapolates to the exome or the genome as a whole. For purposes of mutation load estimation, all coding short variant alterations, base substitutions, and indels detected in the genes listed in Table 1 and Table 2 were counted. Further, all coding alterations (base substitutions and indels), including synonymous alterations, with the exception of known oncogenic driver mutations, in the genes listed in Table 1 and Table 2 were counted. However, numerous classes of detected alterations were not counted: non-coding alterations; alterations with known (occurring as known somatic alterations in the COSMIC database (Forbes et al. (2014) Nucl. Acids Res. 43:D805-11) and likely (truncations in tumor suppressor genes) functional status; known germline alterations in the dbSNP database (Sherry et al. (2001) Nucleic Acids Res. 29(1):308-11); germline alterations occurring with two or more counts in the ExAC database (Exome Aggregation Consortium (ExAC), Cambridge, Mass.); alterations that are predicted to be germline in the specimen being assessed; and alterations that are predicted to be germline in a cohort of >60,000 clinical specimens. Finally, to calculate the mutation load per megabase, the total number of mutations counted was divided by the coding region target territory of the test, which was 1.110 megabases (Mb) for the current version of the test. The average median coverage value for all samples was 490.\nThe BEP was defined as patients with at least one tTMB measurement from a baseline tumor sample. […]"}, "[2]": {"test_system": "locally advanced or metastatic NSCLC (PD-L1-unselected patients)", "assay": "POPLAR Phase II randomized trial, atezolizumab vs docetaxel, in 2L+ PD-L1-unselected NSCLC, efficacy by tTMB", "assay_type": "in vivo, human", "source_text": "as §1\nData from the single-arm, PD-L1-selected trials BIRCH and FIR were combined and analyzed to examine the association between tTMB and clinical outcomes among PD-L1-selected patients. Data from the randomized, PD-L1-unselected trial, POPLAR, were analyzed separately and treatment effects between the atezolizumab- and docetaxel-treatment arms were compared.\nas §2, with “Finally, to calculate the mutation load per megabase, the total number of mutations counted was divided by the coding region target territory of the test, which was 1.110 megabases (Mb) for the current version of the test. The average median coverage value for all samples was 490.” left out"}, "[3]": {"details": "BEP (evaluable for TMB) (n = 174 atezolizumab, 186 docetaxel)"}, "[4]": {"details": "tTMB score <9 mut/Mb (n = 91 atezolizumab, 87 docetaxel)"}, "[5]": {"details": "tTMB score <16 mut/Mb (n = 135 atezolizumab, 136 docetaxel)"}, "[6]": {"details": "tTMB score ≥9 mut/Mb (n = 83 atezolizumab, 99 docetaxel)"}, "[7]": {"details": "tTMB score ≥16 mut/Mb (n = 39 atezolizumab, 50 docetaxel)"}}}
{"smiles": "CC(=O)O[C@@]12CO[C@@H]1C[C@H](O)[C@@]1(C)C(=O)[C@H](O)C3=C(C)[C@@H](OC(=O)[C@H](O)[C@@H](NC(=O)OC(C)(C)C)c4ccccc4)C[C@@](O)([C@@H](OC(=O)c4ccccc4)[C@H]21)C3(C)C", "note": "[docetaxel]", "values": [{"measurement": "Median OS", "setting": "[1]; [3]", "result": 9.8, "unit": "months"}, {"measurement": "Median PFS", "setting": "[1]; [3]", "result": 3.81, "unit": "months"}, {"measurement": "Median OS", "setting": "[1]; ITT (n = 425 per arm)", "result": 9.6, "unit": "months"}, {"measurement": "Median PFS", "setting": "[1]; ITT (n = 425 per arm)", "result": 4.0, "unit": "months"}, {"measurement": "Median OS", "setting": "[1]; [4]", "result": 10.8, "unit": "months"}, {"measurement": "Median PFS", "setting": "[1]; [4]", "result": 4.1, "unit": "months"}, {"measurement": "Median OS", "setting": "[1]; [5]", "result": 10.1, "unit": "months"}, {"measurement": "Median PFS", "setting": "[1]; [5]", "result": 4.0, "unit": "months"}, {"measurement": "Median OS", "setting": "[1]; [6]", "result": 9.7, "unit": "months"}, {"measurement": "Median PFS", "setting": "[1]; [6]", "result": 3.6, "unit": "months"}, {"measurement": "Median OS", "setting": "[1]; [7]", "result": 9.7, "unit": "months"}, {"measurement": "Median PFS", "setting": "[1]; [7]", "result": 3.5, "unit": "months"}, {"measurement": "ORR (confirmed per RECIST v1.1) with increasing tTMB", "setting": "[2]; POPLAR, per treatment arm", "result": "did not experience improvement in ORR"}, {"measurement": "ORR", "setting": "[2]; POPLAR, BEP (n = 54 atezolizumab vs 38 docetaxel)", "result": 15, "unit": "%"}, {"measurement": "ORR", "setting": "[2]; POPLAR, ITT (n = 144 atezolizumab vs 143 docetaxel)", "result": 15, "unit": "% vs 15%"}, {"measurement": "ORR", "setting": "[2]; POPLAR, tTMB quantile ≥25%", "result": 10, "unit": "%"}, {"measurement": "ORR", "setting": "[2]; POPLAR, tTMB quantile ≥50% (median)", "result": 4, "unit": "%"}, {"measurement": "ORR", "setting": "[2]; POPLAR, tTMB quantile ≥75%", "result": 8, "unit": "%"}, {"measurement": "association of tissue TMB with efficacy", "setting": "[2]; docetaxel arm, 2L+ NSCLC, randomized setting", "result": "not associated with the efficacy"}]}
